From patent publication US7601716B2, “Pyridopyrazines and derivatives thereof as ALK and c-Met inhibitors” (Cephalon, Inc., priority 2006, dated 2009) come the findings set out here.

Assay [1] has as its target T1, NPM-ALK (Homo sapiens, UniProt Q9UM73).
T1 construct: a fusion protein consisting of nucleophosmin (NMP) and the intracellular domain of ALK; the other entry of the earlier key: NPM1 (P06748, Nucleophosmin)
Put plainly: ALK Cellular Assay (phospho-NPM-ALK immunoblot / ALK tyrosine phosphorylation ELISA). Type of assay: cell-based. The note with it: for inhibition at 1 µM: NPM-ALK, 1 μM compound, read-out: ALK Cellular Activity Inhibition Score at 1 μM. How it is done:
Immunoblotting of phospho-NPM-ALK and total NPM-ALK from cell lysates was carried out according to the protocols provided by the antibody suppliers. In brief, after treatment of Example compounds, cells were lysed in Frak lysis buffer [10 mM Tris, pH 7.5, 1% Triton X-100, 50 mM sodium chloride, 20 mM sodium fluoride, 2 mM sodium pyrophosphate, 0.1% BSA, plus freshly prepared 1 mM activated sodium vanadate, 1 mM dithiothreitol (#165680050, ARCOS Organics, Geel, Belgium), and 1 mM PMSF (#837091, Boehringer Mannheim Biochemicals, Indianapolis, Ind.), protease inhibitors cocktail III (#539134-1Set, Calbiochem, 1:100 dilution)]. After brief sonication, the lysates were cleared by centrifugation, mixed with sample buffer and subjected to SDS-PAGE. Following transfer to membranes, the membranes were blotted with either rabbit phospho-NPM-ALK(Y664) (Cat^#3341) or ALK antibody (Cat^#3342) from Cell Signaling Technology (Beverly, Mass.), and then the HRP-conjugated goat anti-rabbit antibodies (Santa Cruz, Calif.) after washed in TBS/0.2% Tween-20. The protein bands were visualized with ECL Western Blotting detection reagents (RPN2106, Amersham Biosciences, Buckinghamshire, UK) and quantitated with gel-pro analyzer 3.1 software.
To measure ALK tyrosine phosphorylation in cells with an ELISA assay, fluoronunc plates (Cat^#437796, Nalge Nunc, Rochester, N.Y.) were pre-coated with goat anti-mouse IgG, and incubated with the capture mouse ALK antibody (Cat^#35-4300, Zymed, Seattle, Wash.) diluted 1:1000 in Superblock (Pierce, Rockford, Ill.). Following blocking, cell lysates were added to plates and incubated overnight at 4° C. Plates were incubated with the detecting antibody, anti-phospho-ALK (Y664) (Cell Signaling Technology), diluted at 1:2000, followed by incubation with goat anti-rabbit-IgG alkaline phosphatase to amplify the detection. Wells were exposed to the fluorogenic substrate 4-MeUP (#3368-04-5, Calbiochem) and the signal quantified using a CytoFluor® (series 4000) Fluorescence Multi-Well Plate Reader (Applied Biosystems, Foster City, Calif.).
(In general: Immunoblotting shows a protein as a band on a membrane.)

Assay [2] concerns the target baculovirus-expressed ALK (Homo sapiens, UniProt Q9UM73). Description: ALK Kinase Assay (ELISA/TRF, PLC-γ substrate). Further: 1 µM ATP (Km level). The assay is classed as biochemical. Conditions: read-out: ALK Kinase Inhibition (IC50). In a few lines:
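Plates coated with GST–PLC-γ fusion substrate (10 μg/mL in TBS); reaction started with 30 ng/ml ALK, run 15 minutes at 37° C. Phosphotyrosine detected by Eu-N1 PT66 antibody (1 hour, 37° C) and time-resolved fluorescence after enhancement. IC50 from sigmoidal variable-slope fit of percent inhibition versus log concentration.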
In general terms: ELISA stands for enzyme-linked immunosorbent assay.

Assay [3] concerns the target T2, c-Met (cytoplasmic domain) (Homo sapiens, UniProt P08581).
T2 construct: Reactions were initiated with 30 ng/mL c-Met (cytoplasmic domain, Invitrogen Corporation #PV3143); purchased Invitrogen Corporation PV3143
Put plainly: c-Met Kinase Assay (ELISA/TRF, PLC-γ substrate). Type of assay: biochemical. The note with it: 3 μM ATP (Km level); read-out: c-Met Kinase Inhibition (IC50). In a few lines:
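c-Met cytoplasmic domain (30 ng/mL) phosphorylates plate-coated GST–PLC-γ for 15 min at 37 °C. Phosphotyrosine detected with Eu-labeled PT66 antibody by time-resolved fluorescence. IC50 from variable-slope sigmoidal fit of % inhibition vs log concentration.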

The term IC50 denotes the concentration needed to halve the response being measured. By inhibition is commonly meant the relative decrease from the control value, in per cent.

Counter-ions that a name gives are not always drawn. Some results are limits rather than exact numbers.

T1 sequence (Q9UM73 with tags, fused parts or gaps): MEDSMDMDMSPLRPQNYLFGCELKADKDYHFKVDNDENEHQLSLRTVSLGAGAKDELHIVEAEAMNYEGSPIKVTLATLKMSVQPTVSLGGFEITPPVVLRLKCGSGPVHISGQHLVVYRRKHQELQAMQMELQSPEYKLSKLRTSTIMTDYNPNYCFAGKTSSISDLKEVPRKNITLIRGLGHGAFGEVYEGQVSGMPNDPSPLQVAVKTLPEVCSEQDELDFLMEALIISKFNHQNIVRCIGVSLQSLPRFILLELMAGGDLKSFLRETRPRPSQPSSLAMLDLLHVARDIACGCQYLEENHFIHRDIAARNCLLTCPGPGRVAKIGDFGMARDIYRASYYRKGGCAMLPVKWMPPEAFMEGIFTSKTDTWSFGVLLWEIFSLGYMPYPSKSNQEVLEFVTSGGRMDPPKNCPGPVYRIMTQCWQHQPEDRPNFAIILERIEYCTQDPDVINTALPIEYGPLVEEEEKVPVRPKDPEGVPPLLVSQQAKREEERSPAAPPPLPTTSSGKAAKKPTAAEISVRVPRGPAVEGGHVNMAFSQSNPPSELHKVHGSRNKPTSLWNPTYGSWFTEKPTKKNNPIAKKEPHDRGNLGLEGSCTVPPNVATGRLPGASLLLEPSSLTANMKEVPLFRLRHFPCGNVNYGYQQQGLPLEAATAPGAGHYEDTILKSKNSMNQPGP
baculovirus-expressed ALK, sequence (Q9UM73 19-1620): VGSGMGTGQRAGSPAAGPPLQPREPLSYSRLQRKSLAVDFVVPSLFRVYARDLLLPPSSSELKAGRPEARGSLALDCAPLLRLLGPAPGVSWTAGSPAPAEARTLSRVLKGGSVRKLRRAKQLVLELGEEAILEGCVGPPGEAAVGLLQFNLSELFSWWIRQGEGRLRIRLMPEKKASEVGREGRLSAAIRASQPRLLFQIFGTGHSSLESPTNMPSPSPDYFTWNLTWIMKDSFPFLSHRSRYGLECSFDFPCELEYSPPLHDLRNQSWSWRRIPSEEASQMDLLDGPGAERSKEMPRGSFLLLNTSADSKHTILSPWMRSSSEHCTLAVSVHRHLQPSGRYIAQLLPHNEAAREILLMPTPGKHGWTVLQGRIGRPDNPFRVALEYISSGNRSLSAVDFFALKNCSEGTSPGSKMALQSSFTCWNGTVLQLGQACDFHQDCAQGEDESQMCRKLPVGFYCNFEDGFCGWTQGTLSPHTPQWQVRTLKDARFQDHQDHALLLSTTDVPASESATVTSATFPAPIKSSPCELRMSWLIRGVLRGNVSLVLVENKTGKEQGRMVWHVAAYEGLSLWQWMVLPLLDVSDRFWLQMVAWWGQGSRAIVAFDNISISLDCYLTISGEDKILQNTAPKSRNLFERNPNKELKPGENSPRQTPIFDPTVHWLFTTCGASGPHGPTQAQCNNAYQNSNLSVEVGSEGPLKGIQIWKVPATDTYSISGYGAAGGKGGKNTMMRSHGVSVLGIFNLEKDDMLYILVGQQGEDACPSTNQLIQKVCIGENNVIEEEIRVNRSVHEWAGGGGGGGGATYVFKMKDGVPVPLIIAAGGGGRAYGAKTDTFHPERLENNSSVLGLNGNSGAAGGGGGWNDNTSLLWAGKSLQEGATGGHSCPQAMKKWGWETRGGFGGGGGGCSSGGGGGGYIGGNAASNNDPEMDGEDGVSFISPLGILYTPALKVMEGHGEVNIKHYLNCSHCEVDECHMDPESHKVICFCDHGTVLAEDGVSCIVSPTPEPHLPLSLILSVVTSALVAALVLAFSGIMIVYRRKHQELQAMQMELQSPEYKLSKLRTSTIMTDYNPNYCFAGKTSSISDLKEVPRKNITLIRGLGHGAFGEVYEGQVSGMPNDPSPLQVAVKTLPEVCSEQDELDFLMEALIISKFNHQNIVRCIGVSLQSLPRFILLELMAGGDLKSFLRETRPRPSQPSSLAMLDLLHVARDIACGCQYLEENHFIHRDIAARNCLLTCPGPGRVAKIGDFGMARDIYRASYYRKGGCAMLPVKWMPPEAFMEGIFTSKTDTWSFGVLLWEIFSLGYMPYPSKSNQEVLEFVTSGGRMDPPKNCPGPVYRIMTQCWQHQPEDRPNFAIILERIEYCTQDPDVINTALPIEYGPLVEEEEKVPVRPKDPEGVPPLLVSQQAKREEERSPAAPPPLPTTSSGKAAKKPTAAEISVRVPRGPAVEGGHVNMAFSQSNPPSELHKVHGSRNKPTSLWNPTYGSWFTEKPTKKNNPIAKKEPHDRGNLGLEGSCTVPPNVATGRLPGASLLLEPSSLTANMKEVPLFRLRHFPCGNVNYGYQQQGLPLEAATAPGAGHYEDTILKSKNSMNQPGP
T2 sequence (P08581 956-1390 limits assumed): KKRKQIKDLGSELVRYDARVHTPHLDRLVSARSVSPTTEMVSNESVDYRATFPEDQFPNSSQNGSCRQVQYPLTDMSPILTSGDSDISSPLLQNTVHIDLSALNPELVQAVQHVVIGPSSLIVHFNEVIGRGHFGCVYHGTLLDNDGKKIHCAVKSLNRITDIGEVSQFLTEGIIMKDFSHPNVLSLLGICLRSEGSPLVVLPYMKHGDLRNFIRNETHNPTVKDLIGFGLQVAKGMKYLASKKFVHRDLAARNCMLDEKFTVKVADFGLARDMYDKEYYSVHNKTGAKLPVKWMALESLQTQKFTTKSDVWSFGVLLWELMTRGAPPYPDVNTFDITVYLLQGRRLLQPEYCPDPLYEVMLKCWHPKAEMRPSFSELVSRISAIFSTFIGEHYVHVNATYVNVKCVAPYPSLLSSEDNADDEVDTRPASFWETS

For the compound `Fc1ccc(F)c(CN2CCNc3ncc(-c4cccc(N5CCOCC5)c4)cc32)c1Cl` [Example 189, 1-(2-Chloro-3,6-difluorobenzyl)-7-(3-morpholin-4-yl-phenyl)-1,2,3,4-tetrahydropyrido[2,3-b]pyrazine], the IC50 was at most 0.25 µM in assay [1], under 0.1 µM in assay [2] and 0.1 to 1 µM in assay [3].
With `O=S(=O)(CCN1CCCC1)Nc1ccc(-c2cnc3c(c2)N(Cc2cc(F)ccc2F)CCN3)cc1` [Example 51, 2-Pyrrolidin-1-yl-ethanesulfonic acid{4-[1-(2,5-difluorobenzyl)-1,2,3,4-tetrahydropyrido[2,3-b]pyrazin-7-yl]phenyl}-amide], the inhibition at 1 µM in assay [1] was in the range of 26 to 50%. Also, the half-maximal inhibitory concentration (IC50) in assay [2] lay within 0.1 to 1 µM; in assay [3], 10 to 100 µM.
In the case of `Fc1ccc(F)c(CN2CCNc3ncc(-c4ccc(N5CCOCC5)nc4)cc32)c1Cl` [Example 105, 1-(2-Chloro-3,6-difluorobenzyl)-7-(6-morpholin-4-yl-pyridin-3-yl)-1,2,3,4-tetrahydropyrido[2,3-b]pyrazine], the IC50 in assay [1] is 0.751 to 1 µM; in assay [2], under 0.1 µM; in assay [3], 1 to 10 µM.
On to `O=C(c1ccc(-c2cnc3c(c2)N(Cc2ccccc2)CCN3)cc1)N1CCC[C@H]1CN1CCCC1` [Example 38, [4-(1-Benzyl-1,2,3,4-tetrahydropyrido[2,3-b]pyrazin-7-yl)phenyl]-((S)-2-pyrrolidinylmethylpyrrolidin-1-yl)methanone, trifluoroacetic acid salt], for which the IC50 lay within 0.501 to 0.75 µM in assay [1], 0.1 to 1 µM in assay [2] and 0.1 to 1 µM in assay [3].
For `COC1CCN(C(=O)c2ccc(-c3cnc4c(c3)N(Cc3cc(Cl)ccc3C(F)(F)F)CCN4)cc2)CC1` [Example 205], the IC50 in assay [1] is 0.251 to 0.5 µM; in assay [2], under 0.1 µM; in assay [3], 1 to 10 µM.
`CC(c1cc(F)ccc1F)N1CCNc2ncc(-c3ccc(C(=O)N4CCC[C@H]4CN4CCCC4)cc3)cc21` (stereo partly drawn) [Example 154, S-(4-{1-[1-(2,5-Difluorophenyl)ethyl]-1,2,3,4-tetrahydropyrido[2,3-b]pyrazin-7-yl}phenyl)-{2-[(pyrrolidin-1-yl)methyl]pyrrolidin-1-yl}methanone]: the IC50 in assay [1] was 0.251 to 0.5 µM; in assay [2], under 0.1 µM; in assay [3] it was 10 to 100 µM.
`CN1CCN(C(=O)c2ccc(-c3cnc4c(c3)N(Cc3cc(Cl)ccc3Cl)CCN4)cc2)CC1` [Example 132, {4-[1-(2,5-Dichlorobenzyl)-1,2,3,4-tetrahydropyrido[2,3-b]pyrazin-7-yl]phenyl}-(4-methylpiperazin-1-yl)methanone]: the IC50 was 0.251 to 0.5 µM in assay [1], under 0.1 µM in assay [2] and 1 to 10 µM in assay [3].
In the case of `CN(C)CCCCNC(=O)c1ccc(-c2cnc3c(c2)N(Cc2c(Cl)cccc2Cl)C(=O)CN3)cc1` [Example 144, 4-[1-(2,6-Dichlorobenzyl)-2-oxo-1,2,3,4-tetrahydropyrido[2,3-b]pyrazin-7-yl]-N-(4-dimethylaminobutyl)benzamide, trifluoroacetic acid salt], the inhibition at 1 µM in assay [1] was in the range of 0 to 25%. Moreover, the IC50 in assay [2] was in the range of 0.1 to 1 µM; in assay [3], 1 to 10 µM.
`CN1CCN(c2ccc(-c3cnc4c(c3)N(Cc3cc(Cl)ccc3Cl)CCN4)cn2)CC1` [Example 180, 1-(2,5-Dichlorobenzyl)-7-[6-(4-methylpiperazin-1-yl)pyridin-3-yl]-1,2,3,4-tetrahydropyrido[2,3-b]pyrazine]: the half-maximal inhibitory concentration (IC50) in assay [1] was 0.251 to 0.5 µM; in assay [2] it was under 0.1 µM; in assay [3], 1 to 10 µM.
Taken in the same sequence, the figures for `CN(C)CCCCNC(=O)c1cnc2c(c1)N(Cc1cc(Cl)ccc1C(F)(F)F)CCN2` [Example 295, 1-[5-Chloro-2-(trifluoromethyl)benzyl]-1,2,3,4-tetrahydropyrido[2,3-b]pyrazine-7-carboxylic acid [4-(dimethylamino)butyl]amide] were 0.251 to 0.5 µM, under 0.1 µM and 1 to 10 µM.
